The source of these data is EPA's ToxValDB 9.5.

The NOAEL is the highest dose or exposure tested at which no adverse effect was seen. For orientation: LOAEL means the lowest dose or exposure tested at which an adverse effect was seen.

One data set concerns Rattus norvegicus. The conditions noted are these: for LD50: acute, mortality.
A further data set deals with Colinus virginianus. The conditions noted are these: acute; oral; diet; mortality.
A further data set deals with Apis mellifera. The conditions noted are these: acute, mortality.
The next data set concerns Tagia sp. The conditions noted are these: acute; duration: 14 days; mortality.
The subject of a further data set is Leuciscus idus. The conditions noted are these: acute; duration: 96 hours; mortality.
Another data set relates to Lepomis macrochirus. The conditions noted are these: acute; duration: 96 hours; mortality.
The subject of the next data set is Ceriodaphnia dubia. The conditions noted are these: chronic/long-term; duration: 7 days; reproduction.
Another data set deals with Canidae. The conditions noted are these: chronic; duration: 1 years; oral; Dog Other; clinical signs.
The subject of the next data set is Anas platyrhynchos. The conditions noted are these: oral, mortality.
A further data set relates to Felidae. The conditions noted are these: short-term; duration: 10 days; oral; diet; Cat; no effects.
The next data set concerns Sus scrofa. The conditions noted are these: Not specified; for LEL: acute, duration: 3 days, oral, no effects.
In a further data set the test system is Neovison vison. The conditions noted are these: reproduction developmental; oral; diet; F; reproduction.
The subject of the next data set is Meleagris sp. The conditions noted are these: short-term; duration: 3 weeks; oral; feed; F; body weight.
Another data set concerns Gallus gallus. The conditions noted are these: for NOAEL: body weight.
The test system of another data set is Anatidae. The conditions noted are these: short-term; duration: 17 days; oral; feed; M; histopathology: nonneoplastic.
The next data set has as its system Oryctolagus sp. The conditions noted are these: no effects.
In another data set the test system is Pontoscolex corethrurus. The conditions noted are these: chronic/long-term; reproduction.
The test system of another data set is Bovidae. The conditions noted are these: oral.
A further data set deals with Anabaena flosaquae. The conditions noted are these: acute; duration: 72 hours; biomass.
In the next data set the test system is Plant. The conditions noted are these: not reported; other.
Another data set concerns Bibionidae. The conditions noted are these: chronic/long-term; duration: 28 days; seedling emergence.
The next data set has as its system Numida meleagris. The conditions noted are these: subchronic; duration: 85 days; no effects.
The test system of the next data set is Capra sp. The conditions noted are these: subchronic; no effects.
Another data set has as its system Equus caballus. The conditions noted are these: not reported; neurology.
A further data set relates to Carassius carassius. The conditions noted are these: not reported; oral; feed; histopathology: nonneoplastic.
Another data set concerns Pelteobagrus fulvidraco. The conditions noted are these: subchronic; duration: 10 weeks; oral; feed; histopathology: nonneoplastic.
The subject of the next data set is Macaca mulatta. The conditions noted are these: acute; oral; neurology.

Converted amounts (≈) assume the structure as drawn. Bounds are passed on as bounds.

As for `[S]` [Sulfur], the LD50 with Rattus norvegicus (oral) was over 1760 mg/kg; the LD50 in the data set on Apis mellifera (oral, unspecified) was over 100 µg/piece; the LD50 (acute, oral, unspecified, mortality) is over 5000 mg/kg. Further, the NOAEL with Rattus norvegicus (short-term, duration: 28 days, no effects) is over 1000 mg/kg-day; with Rattus norvegicus (subchronic, duration: 90 days, no effects), 1000 mg/kg-day. The LC50 in the data set with Colinus virginianus is over 1330 mg/kg-day; in the data set on Oncorhynchus mykiss (acute, duration: 96 hours, mortality) it was over 0.063 mg/L; with Tagia sp., over 1580 mg/kg. The compound further showed an NOEC with Oncorhynchus mykiss (chronic/long-term, duration: 28 days, growth) of over 0.063 mg/L.
In turn, `O=C(O)CCCc1c[nH]c2ccccc12` [Indole-3-butyric acid] returned an LC50 in the data set on Leuciscus idus of 210 mg/L (≈ 1030 µM). Moreover, the LD50 in the data set with Mus musculus (acute, oral, mortality) was determined as 1920 mg/kg-day.
In the case of `CNC(=O)Oc1cccc2c1OC(C)(C)C2` [Carbofuran], the LD50 in the data set on Rattus norvegicus (oral) was under 5.6 mg/kg; with Apis mellifera (dermal) it was 0.0357 µg/piece; in the data set with Anas platyrhynchos (acute, unspecified, M) it was 0.71 mg/kg. Further, the NOAEL in the data set with Rattus norvegicus (reproduction developmental, clinical signs) was 0.1 mg/kg-day; in the data set with Canidae, 0.1 mg/kg-day. The LC50 in the data set with Lepomis macrochirus was determined as 0.18 mg/L (≈ 0.814 µM); in the data set on Anas platyrhynchos (short-term, feed), 1.6 mg/kg-day. Also, the NOEC in the data set with Ceriodaphnia dubia stood at 0.00016 mg/L.
In the data set on Rattus norvegicus (subchronic, duration: 13 weeks, oral), `Nc1nc(N)nc(N)n1` [Melamine] displayed an NOAEL of 63 mg/kg-day. The LEL turned out to be 181 mg/kg-day with Felidae; 400 mg/kg-day with Sus scrofa (diet); 456 mg/kg-day in the data set with Oncorhynchus mykiss (acute, duration: 3 days, oral, capsule, no effects).
With `O=c1cc(O)c1=O` [Moniliformin], the NOAEL in the data set with Neovison vison was found to be 0.92 mg/kg-day; with Rattus norvegicus (short-term, duration: 28 days, oral, gavage, M, Sprague-Dawley, clinical signs), 6 mg/kg-day; in the data set on Meleagris sp., 1.6 mg/kg-day; in the data set with Gallus gallus (chronic, duration: 14 months, oral, diet), 3.8 mg/kg-day; with Gallus gallus (subchronic, duration: 7 weeks, oral, diet) it was 1.4 mg/kg-day; in the data set with Anatidae it was 2.3 mg/kg-day.
With `N#CC(c1ccc(Cl)cc1)c1c(Cl)cc(-n2ncc(=O)[nH]c2=O)cc1Cl` (stereo not given) [Diclazuril], the LEL in the data set on Oryctolagus sp. (repeat dose other, F) was 6 mg/kg-day; with Oryctolagus sp. (subchronic, duration: 35 days, oral, diet, M/F, New Zealand), 6 mg/kg-day; with Bovidae (acute, duration: 3 days, no effects), at most 5 mg/kg-day; in the data set with Sus scrofa, 10 mg/kg-day; with Gallus gallus (subchronic, duration: 37 days, no effects), 25 mg/kg-day; in the data set with Numida meleagris it was at most 25 mg/kg. Further, the LEL in the data set on Capra sp. is at most 80 mg/kg. In addition, the NOEC in the data set on Pontoscolex corethrurus was determined as 50 mg/kg; the NOEC with Anabaena flosaquae is over 10.3 µg/L; the NOEC in the data set with Plant is 50.3 mg/kg; the NOEC with Bibionidae turned out to be 13.3 mg/kg; the NOEC (repeat dose other, other) was over 1 mg/kg-day. The compound further gave a no observed adverse effect level (NOAEL) in the data set on Mus musculus (chronic, duration: 2 years, M, histopathology: nonneoplastic) of 2.9 mg/kg-day.
With `CCCC[C@@H](C)[C@@H](OC(=O)C[C@@H](CC(=O)O)C(=O)O)[C@H](C[C@@H](C)C[C@H](O)CCCC[C@@H](O)C[C@H](O)[C@H](C)N)OC(=O)C[C@@H](CC(=O)O)C(=O)O` [Fumonisin B1], the NOAEL amounted to 0.2 mg/kg-day in the data set with Rattus norvegicus (subchronic) and 20 mg/kg with Pelteobagrus fulvidraco. Besides, the LOAEL in the data set with Equus caballus came out at 0.2 mg/kg-day; with Bovidae (chronic, duration: 253 days, diet, M, histopathology: nonneoplastic) it was 2.4 mg/kg-day; in the data set with Sus scrofa (subchronic, clinical chemistry), 0.2 mg/kg-day; in the data set on Carassius carassius, 10 mg/kg; with Gallus gallus (short-term, duration: 21 days, oral, diet, clinical chemistry) it was 2 mg/kg-day.
As for `C/C(=C/C=C/[C@@H](C)C(=O)O)[C@H]1CN[C@H](C(=O)O)[C@H]1CC(=O)O` [L-Domoic acid], the LOAEL with Macaca mulatta was 5 mg/kg-day.
